The values that follow are results of earlier work, collected in US12728162B2, “Methods of treating lung cancer with a PD-1 axis binding antagonist, a platinum agent, and a topoisomerase II inhibitor” (Genentech, Inc., priority 2018, dated 2026).

As for `[NH3+][Pt-2]1([NH3+])[O]C(=O)C2(CCC2)C(=O)[O]1` [Carboplatin, platinum, diammine [1,1-cyclobutanedicarboxylato (2-)-O,O′]—, (SP-4-2)], the “solubility in organic solvents” value (ethanol, acetone, and dimethylacetamide) is “virtually insoluble”. For the setting “water”, the solubility in water entry is given as “approximately 14 mg/mL”.
